Measured values from patent US8901138B2, “Sulfoximine substituted quinazolines for pharmaceutical compositions” (Boehringer Ingelheim International GmbH, priority 2012, dated 2014).

What follows are compounds tested against T1, MNK2a (Homo sapiens, UniProt Q9HBH9) (assay: MNK2a in vitro kinase assay (assay 1), ADP-Glo). Details: preactivated GST-MNK2a, 20 μM ATP, read-out: MNK2 IC50.
T1 construct: made in house
Assay type: biochemical
Method: A. MNK2a In Vitro Kinase Assay (Assay 1)
ASSAY SETUP: The inhibition of kinase activity of MNK2a was assessed using preactivated GST-MNK2a. The white, 384-well OptiPlate F plates were purchased from Perkin Elmer. The ADP-Glo Kinase Assay (including ultra pure ATP) was purchased from Promega (V9103). Activated MNK2a was obtained as described in WO2011/104340. The unlabeled eIF4E peptide (NH2-[…]—CONH2) (SEQ ID NO: 1), differing from Seq. ID No. 5 of WO 2011/104340 by the C-terminal —CONH2 group, was purchased from Thermo Fisher Scientific. All other materials were of highest grade commercially available. Compounds are tested in either serial dilutions or single dose concentrations. The compound stock solutions are 10 mM in 100% DMSO The serial compound dilutions are prepared in 100% DMSO followed by 1:27.3 intermediate dilution in assay buffer. The final DMSO concentration in assay will be <3%. In the 384-well plates 3 μl of test compound from the intermediate dilution is mixed with 4 μl of the activated MNK2 enzyme (final concentration of 10 nM) and 4 μl of the peptide (final concentration of 25 μM)/ultra pure ATP (final concentration of 20 μM), all dissolved in assay buffer. This step is followed by an incubation time of 90 min, then 10 μl of ADP Glo reagent are added, followed by 40 min of incubation. Then 20 μl of kinase detection reagent are admixed. The plates are sealed and after an incubation period of 30 min, the luminescence signal is measured in an Envision reader to determine the amount of produced ADP. All incubation steps are performed at room temperature. The assay buffer consists of 20 mM HEPES, 2 mM DTT, 0.01% BSA, 20 mM MgCl2 and 0.1% Pluronic F-127.
Each assay microtiter plate contains wells with vehicle controls instead of compound (1% DMSO in water) as reference for the high signal (100% CTL, high signal), and wells containing a potent MNK2 inhibitor (final 20 μM, 1% DMSO) as reference for low signal (0% CTL, low signal).
The luminescent signal generated is proportional to the ADP concentration produced and is correlated with activated MNK2 activity. The analysis of the data is performed by the calculation of the percentage of ATP consumption of activated MNK2 in the presence of the test compound compared to the consumption of ATP in the presence of activated MNK2 without compound. (RLU(sample)−RLU(low control))*100/(RLU(high value)−RLU(low control)) [RLU=relative luminescence units]
An inhibitor of the MNK2 enzyme will give values between 100% CTL (no inhibition) and 0% CTL (complete inhibition). Values of more than 100% CTL are normally related to compound/sample specific physico-chemical properties (e.g. solubility, light absorbance, fluorescence).
IC50 values based on dose response curves are calculated with the AssayExplorer software.

T1 sequence (Q9HBH9 whole entry): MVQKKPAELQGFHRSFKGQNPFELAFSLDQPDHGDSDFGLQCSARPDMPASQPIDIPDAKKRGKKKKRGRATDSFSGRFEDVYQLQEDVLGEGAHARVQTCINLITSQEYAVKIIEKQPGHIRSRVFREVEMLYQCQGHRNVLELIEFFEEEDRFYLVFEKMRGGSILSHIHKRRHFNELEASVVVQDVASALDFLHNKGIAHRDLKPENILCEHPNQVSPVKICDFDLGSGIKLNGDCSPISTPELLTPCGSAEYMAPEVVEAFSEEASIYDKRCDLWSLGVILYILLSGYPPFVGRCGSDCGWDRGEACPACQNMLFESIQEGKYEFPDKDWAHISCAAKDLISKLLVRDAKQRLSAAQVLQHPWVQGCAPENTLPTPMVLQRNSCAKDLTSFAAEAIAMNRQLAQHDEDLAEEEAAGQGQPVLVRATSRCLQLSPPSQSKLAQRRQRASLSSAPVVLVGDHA

| SMILES | IC50 |
| --- | --- |
| Cc1cc(N=S(C)(C)=O)cc2ncnc(Nc3ccc(F)cc3O[C@@H]3CCOC3)c12 [Example 2.5] | 3 nM |
| COc1cc(N=S2(=O)CCCC2)cc2ncnc(Nc3cccnc3O[C@H]3CC[C@H](O)CC3)c12 [Example 2.18] | 1 nM |
| Cc1cc(N=S(C)(C)=O)cc2ncnc(Nc3ccc(F)cc3OC3CCC(O)C3)c12 (racemic) [Example 4.3] | 3 nM |
| Cc1cc(N=S(C)(C)=O)cc2ncnc(Nc3ccc(F)cc3O[C@@H]3CC[C@H]3O)c12 [Example 1.34] | 3 nM |
| CO[C@H]1CC[C@H](Oc2ncccc2Nc2ncnc3cc(N=S(C)(C)=O)cc(C)c23)CC1 [Example 2.68] | 3 nM |
| Cc1cc(N=S2(=O)CCCC2)cc2ncnc(Nc3ccc(F)cc3OC3CCc4ccccc43)c12 (stereo not shown) [Example 4.6] | 3 nM |
| Cc1cc(N=S2(=O)CCCC2)cc2ncnc(Nc3ccc(F)cc3O[C@@H]3CCN(CC(F)F)C3)c12 [Example 6.4] | 2 nM |
| Cc1cc(N=S(C)(C)=O)cc2ncnc(Nc3ccc(F)cc3O[C@H]3C[C@H](N)C3)c12 [Example 3.14] | 2 nM |
| CS(C)(=O)=Nc1cc(Cl)c2c(Nc3ccc(F)cc3O[C@H]3CCOC3)ncnc2c1 [Example 1.14] | 1 nM |
| Cc1cc(N=S2(=O)CCCC2)cc2ncnc(Nc3ccc(F)cc3O[C@@H]3CCCN(S(C)(=O)=O)C3)c12 [Example 6.3] | 2 nM |
| Cc1cc(N=S2(=O)CCCC2)cc2ncnc(Nc3ccc(F)cc3OC3COCCOC3)c12 [Example 2.25] | 2 nM |
| CS(C)(=O)=Nc1cc(Cl)c2c(Nc3ccc(F)cc3O[C@@H]3CO[C@H]4[C@@H]3OC[C@@H]4O)ncnc2c1 [Example 1.3] | 1 nM |
| Cc1cc(N=S(C)(C)=O)cc2ncnc(Nc3ccc(F)cc3O[C@@H]3CCCC[C@@H]3O)c12 [Example 1.39] | 7 nM |
| CCS(C)(=O)=Nc1cc(C)c2c(Nc3ccc(F)cc3O[C@H]3CC[C@H](O)CC3)ncnc2c1 (stereo partly shown) [Example 2.22] | 3 nM |
| CS(C)(=O)=Nc1cc(F)c2c(Nc3ccc(F)cc3O[C@H]3CCOC3)ncnc2c1 [Example 2.89] | 3 nM |
| COc1cc(N=S(C)(C)=O)cc2ncnc(Nc3ccc(F)cc3O[C@H]3CCOC3)c12 [Example 5.2] | 2 nM |
| COc1cc(N=S2(=O)CCCC2)cc2ncnc(Nc3ccc(F)cc3O[C@H]3CC[C@H](O)CC3)c12 [Example 2.90] | 2 nM |
| Cc1cc(N=S(C)(C)=O)cc2ncnc(Nc3ccc(F)cc3O[C@H]3CC[C@@](C)(O)CC3)c12 [Example 2.74] | 3 nM |
| Cc1cc(N=S2(=O)CCCC2)cc2ncnc(Nc3ccc(F)cc3O[C@@H]3CO[C@@H]4CCO[C@@H]43)c12 [Example 2.42] | 1 nM |
| Cc1cc(N=S(C)(=O)c2ccncc2)cc2ncnc(Nc3ccc(F)cc3O[C@@H]3CO[C@@H]4CCO[C@@H]43)c12 (stereo partly shown) [Example 2.96] | 4 nM |
| Cc1cc(N=S2(=O)CCCC2)cc2ncnc(Nc3ccc(F)cc3O[C@@H]3CO[C@H]4[C@@H]3OC[C@H]4O)c12 [Example 2.36] | 2 nM |
| CO[C@H]1CC[C@H](Oc2cc(F)ccc2Nc2ncnc3cc(N=S4(=O)CCCC4)cc(C)c23)CC1 [Example 2.48] | 2 nM |

More lines, now with the values ahead:

| IC50 | SMILES |
| --- | --- |
| 3 nM | Cc1cc(N=S(C)(C)=O)cc2ncnc(Nc3ccc(F)cc3OC3COCCOC3)c12 [Example 2.60] |
| 2 nM | Cc1cc(N=S(C)(C)=O)cc2ncnc(Nc3ccc(F)cc3O[C@@H]3CO[C@@H]4CCO[C@@H]43)c12 [Example 2.39] |
| 9 nM | CCc1cc(N=S(C)(C)=O)cc2ncnc(Nc3ccc(F)cc3O[C@H]3CCOC3)c12 [Example 7.8] |
| 1 nM | CS(C)(=O)=Nc1cc(Br)c2c(Nc3ccc(F)cc3O[C@H]3CCOC3)ncnc2c1 [Example 1.11] |
| 3 nM | Cc1cc(N=S(C)(C)=O)cc2ncnc(Nc3ccc(F)cc3O[C@H]3CC[C@H](O)CC3)c12 [Example 2.71] |
| 1 nM | CO[C@@H]1CO[C@H]2[C@@H]1OC[C@H]2Oc1cc(F)ccc1Nc1ncnc2cc(N=S3(=O)CCCC3)cc(C)c12 [Example 2.43] |
| 3 nM | Cc1cc(N=S(C)(C)=O)cc2ncnc(Nc3ccc(F)cc3O[C@@H]3CCN(CC(F)F)C3)c12 [Example 6.14] |
| 3 nM | Cc1cc(N=S2(=O)CCCCC2)cc2ncnc(Nc3ccc(F)cc3O[C@H]3CCOC3)c12 [Example 2.78] |
| 1 nM | Cc1cc(N=S2(=O)CCCC2)cc2ncnc(Nc3ccc(F)cc3O[C@@H]3CO[C@H]4[C@@H]3OC[C@@H]4O)c12 [Example 2.83] |
| 1 nM | CS(C)(=O)=Nc1cc(Cl)c2c(Nc3cccnc3O[C@H]3CC[C@H](O)CC3)ncnc2c1 [Example 1.16] |
| 2 nM | Cc1cc(N=S(C)(C)=O)cc2ncnc(Nc3ccc(F)cc3OC3CCCC3)c12 [Example 2.70] |
| 4 nM | Cc1cc(N=S2(=O)CCC(O)C2)cc2ncnc(Nc3ccc(F)cc3O[C@H]3CCOC3)c12 (stereo partly shown) [Example 2.93] |
| 1 nM | COc1cc(N=S2(=O)CCCC2)cc2ncnc(Nc3ccc(F)cc3O[C@@H]3CO[C@H]4[C@@H]3OC[C@H]4OC)c12 [Example 2.9] |
| 3 nM | CS(C)(=O)=Nc1cc(F)c2c(Nc3ccc(F)cc3OC3CCCC3)ncnc2c1 [Example 2.29] |
| 1 nM | CO[C@@H]1CO[C@H]2[C@@H]1OC[C@H]2Oc1cc(F)ccc1Nc1ncnc2cc(N=S3(=O)CCCC3)cc(Cl)c12 [Example 1.13] |
| 1 nM | O=S1(=Nc2cc(Cl)c3c(Nc4ccc(F)cc4O[C@H]4CCOC4)ncnc3c2)CCCC1 [Example 1.8] |
| 1 nM | O=S1(=Nc2cc(Cl)c3c(Nc4ccc(F)cc4O[C@@H]4CO[C@@H]5CCO[C@@H]54)ncnc3c2)CCCC1 [Example 1.7] |
| 3 nM | CS(C)(=O)=Nc1cc(C(F)(F)F)c2c(Nc3ccc(F)cc3O[C@H]3CCOC3)ncnc2c1 [Example 1.5] |
| 2 nM | Cc1cc(N=S2(=O)CCCC2)cc2ncnc(Nc3cccnc3O[C@H]3CC[C@H](O)CC3)c12 [Example 2.69] |
| 1 nM | CS(C)(=O)=Nc1cc(Cl)c2c(Nc3ccc(F)cc3O[C@@H]3CO[C@H]4[C@@H]3OC[C@H]4O)ncnc2c1 [Example 1.6] |
| 2 nM | COC1CS(=O)(=Nc2cc(C)c3c(Nc4ccc(F)cc4O[C@@H]4CO[C@@H]5CCO[C@@H]54)ncnc3c2)C1 (stereo partly shown) [Example 2.105] |
